The record followed here is patent publication US20240174634A1, “Aldehyde Dehydrogenase Inhibitors and Their Therapeutic Use” (priority 2020, published 2024).

One experiment concerns the target T1, ALDH1A2 (Homo sapiens, UniProt O94788).
T1 construct: His-tag; made in house; host or cells: E. coli Rosetta (DE3)
T1 sequence (O94788 1-518): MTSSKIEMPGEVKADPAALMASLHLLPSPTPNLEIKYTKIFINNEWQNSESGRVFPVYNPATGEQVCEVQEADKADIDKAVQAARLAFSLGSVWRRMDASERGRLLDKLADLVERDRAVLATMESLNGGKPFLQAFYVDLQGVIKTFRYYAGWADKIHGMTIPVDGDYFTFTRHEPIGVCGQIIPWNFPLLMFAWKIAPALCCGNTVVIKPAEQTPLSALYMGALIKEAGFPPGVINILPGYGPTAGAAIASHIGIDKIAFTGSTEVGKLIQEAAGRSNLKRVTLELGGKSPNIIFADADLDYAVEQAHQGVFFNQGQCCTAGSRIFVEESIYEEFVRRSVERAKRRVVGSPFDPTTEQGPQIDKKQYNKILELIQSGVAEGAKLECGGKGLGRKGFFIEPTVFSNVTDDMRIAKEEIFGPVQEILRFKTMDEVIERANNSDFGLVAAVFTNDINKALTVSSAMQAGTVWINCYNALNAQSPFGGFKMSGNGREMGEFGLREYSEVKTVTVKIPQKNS
Nature of the experiment: Selectivity biochemical assay, NAD(P)H-Glo Detection System. The text has this:
(§1) Cloning: Open reading frames corresponding to the protein coding sequences of full length human ALDH1A1 (Uniprot ID P00352), ALDH1A2 (094788) and ALDH1A3 (P47895) were polymerase chain reaction (PCR) amplified from human cDNA and inserted into the multi-cloning sites of the commercially available (Novagen) E. coli expression vectors pET47b (ALDH1A1, EcoRI restriction site; ALDH1A2, BamHI and EcoRI sites) or pET28a (ALDH1A3, NdeI and BamHI sites), using standard molecular genetic techniques. Recombinant DNA products were sequence verified prior to use in expression studies.
(§2) Expression: Expression constructs were transformed into the E. coli strain Rosetta (DE3) (Merck) and individual colonies used to inoculate 10 mL lysogen broth (LB) medium supplemented with kanamycin and chloramphenicol at 50 μg/mL and 34 μg/mL, respectively. Cultures were grown to saturation overnight at 37° C., prior to being used to sub-inoculate fresh 1 L LB medium cultures (plus antibiotics, as before). 1 L cultures were grown at 37° C., 200 rpm, throughout the day until the optical density at 600 nm (OD600) reached ˜0.8, at which point growth temperature was reduced to 18° C. and 1 mM isopropyl β-d-1-thiogalacto pyranoside (IPTG) added to induce protein expression.
(§3) Cultures were left overnight (at least 16 h) under these conditions and the following day harvested by centrifugation (4000 G, 10 minutes). Culture supernatant was discarded and cell pellets stored at −80° C. until further processing.
(§4) Purification: Cell pellets were thawed on ice, re-suspended in Ni Affinity Buffer A (20 mM HEPES pH 7.5, 300 mM NaCl, 20 mM imidazole, 1 mM tris(2-carboxyethyl)phosphine (TCEP)) with protease inhibitors (cOmplete Ultra protease inhibitor, Roche), and lysed by sonication. Lysates were clarified by centrifugation at 18,000 G, 4° C., for 40 minutes, and loaded directly onto a pre-equilibrated (Buffer A) 5 mL HisTrap Fast Flow column (GE Healthcare) by way of an AKTA Fast Protein Liquid Chromatography (FPLC) system. The column was sequentially treated with 6 column volumes (CV) 100% Buffer A, 8 CV of 90% Buffer A:10% Buffer B (20 mM 4-(2-hydroxyethyl)-1-piperazineethanesulfonic acid (HEPES) pH 7.5, 300 mM NaCl, 500 mM imidazole, 1 mM TCEP) and finally a linear gradient from 10-70% Buffer B over 8 CV to elute recombinant His-tagged protein. Relevant fractions (as measured by 280 nm absorbance) collected during elution were pooled and subjected to further purification by size exclusion chromatography (Superdex 200 26/600, GE Healthcare, running buffer 20 mM 2-(carbamoylmethylamino)ethanesulfonic acid (ACES) pH 7.5, 1 mM TCEP). Relevant fractions from this step were pooled, aliquoted, and stored at −80° C. until required for compound profiling assays.
(§5) Materials: ALDH2 was purchased from Abnova. Tris(hydroxymethyl)aminomethane (Tris) was purchased from MP Biomedicals. TCEP, ethylenediaminetetraacetic acid (EDTA), propionaldehyde, DMSO and Tween-20 were purchased from Sigma. Nicotinamide adenine dinucleotide (NAD) was obtained from Abcam. The NAD(P)H-Glo™ Detection System was purchased from Promega. White, non-binding surface, 384 well plates were supplied by Corning (#3574).
(§6) Method: Inhibition of ALDH1A3 was assessed using the NAD(P)H-Glo™ Detection System (Cat. No. G9062) from Promega. This assay detects the production of NADH from NAD by ALDH1A3 via the coupled enzymatic conversion of a proluciferin reductase substrate to generate a luminescent signal. Inhibition of ALDH1A3 by small molecule inhibitors will result in reduction or abrogation of luminescence signal increase above background. Inhibition of ALDH1A1, ALDH1A2 and ALDH2 (selectivity assays) were assessed using the same assay.
(§7) Compounds were dosed into Corning 384 well assay plates using an Echo acoustic dispenser to give 10 point curves in a 3-fold dilution series. Compounds were dispensed from a 20 mM DMSO stock and initially screened at a top concentration of 20 μM (ALDH1A3) or 250 μM (ALDH1A1, ALDH1A2 & ALDH2). […]

In another experiment the target is T2, ALDH1A1 (Homo sapiens, UniProt P00352).
T2 construct: His-tag; made in house; host or cells: E. coli Rosetta (DE3)
T2 sequence (P00352 1-501): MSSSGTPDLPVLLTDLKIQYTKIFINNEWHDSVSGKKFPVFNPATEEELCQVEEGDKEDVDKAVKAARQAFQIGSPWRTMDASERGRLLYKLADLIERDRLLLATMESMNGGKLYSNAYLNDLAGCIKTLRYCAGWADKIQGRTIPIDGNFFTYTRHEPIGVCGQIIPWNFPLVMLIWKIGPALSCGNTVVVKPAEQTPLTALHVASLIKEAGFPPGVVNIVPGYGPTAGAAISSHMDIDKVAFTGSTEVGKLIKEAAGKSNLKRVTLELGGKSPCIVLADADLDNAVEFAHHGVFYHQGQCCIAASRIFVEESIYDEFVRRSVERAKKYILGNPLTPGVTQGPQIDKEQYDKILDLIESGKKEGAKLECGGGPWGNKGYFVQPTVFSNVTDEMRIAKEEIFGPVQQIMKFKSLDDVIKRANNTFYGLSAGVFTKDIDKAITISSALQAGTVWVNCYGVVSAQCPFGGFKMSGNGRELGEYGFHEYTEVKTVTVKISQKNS
The experiment is described as above.
Excerpt: as §1, §2, §3, §4, §5, §6, §7

As to `O=C1CCc2cc(NC(=O)c3scnc3-c3cccc(F)c3)ccc2N1` [ALDHI-1003, 4-(3-fluorophenyl)-N-(2-oxo-3,4-dihydro-1H-quinolin-6-yl)thiazole-5-carboxamide], the results for the IC50 on ALDH1A2 and against ALDH1A1 were 1 to 10 µM and not below 100 µM, respectively.

As for `CN(CCOc1ccc2c(c1)CCC(=O)N2)C(=O)c1cccc(F)c1` [ALDHI-3008, 3-fluoro-N-methyl-N-[2-[(2-oxo-3,4-dihydro-1H-quinolin-6-yl)oxy]ethyl]benzamide], the concentration for half-maximal inhibition (IC50) at ALDH1A2 was 1 to 10 µM; at ALDH1A1, not below 100 µM.

With `O=C1CCc2cc(OCCN3CCCC3c3ccccc3F)ccc2N1` (stereo not shown) [ALDHI-2002, 6-[2-[2-(2-fluorophenyl)pyrrolidin-1-yl]ethoxy]-3,4-dihydro-1H-quinolin-2-one], the IC50 was 10 to 100 µM against ALDH1A2 and not below 100 µM against ALDH1A1.

Turning to `Cn1cc(C2CCCN2CCOc2ccc3c(c2)SCC(=O)N3)cn1` (stereo not shown) [ALDHI-2026, 7-[2-[2-(1-methylpyrazol-4-yl)pyrrolidin-1-yl]ethoxy]-4H-1,4-benzothiazin-3-one], the IC50 at ALDH1A2 and against ALDH1A1 was not below 100 µM throughout.

For the compound `O=C1CCc2cc(NC(=O)c3sc(N4CCNCC4)nc3-c3cccc(F)c3)ccc2N1` [ALDHI-1005, 4-(3-fluorophenyl)-N-(2-oxo-3,4-dihydro-1H-quinolin-6-yl)-2-piperazin-1-yl-thiazole-5-carboxamide], the figures for the IC50 at ALDH1A2 and at ALDH1A1 were 10 to 100 µM and not below 100 µM, respectively.

As to `O=C1CCc2cc(NC(=O)c3ncsc3-c3cccnc3)ccc2N1` [ALDHI-1010, N-(2-oxo-3,4-dihydro-1H-quinolin-6-yl)-5-(3-pyridyl)thiazole-4-carboxamide], the IC50 at ALDH1A2 is 1 to 10 µM; against ALDH1A1 it was not below 100 µM.

Take `O=C1CCc2cc(NC(=O)c3scnc3-c3ccc(F)cc3)ccc2N1` [ALDHI-1017, 4-(4-fluorophenyl)-N-(2-oxo-1,2,3,4-tetrahydroquinolin-6-yl)thiazole-5-carboxamide]: the half-maximal inhibitory concentration (IC50) on ALDH1A2 is 1 to 10 µM; against ALDH1A1, not below 100 µM.

As to `CC1CN(CCOc2ccc3c(c2)CCC(=O)N3)C(c2ccccc2)CO1` (mixture of isomers) [ALDHI-2042, 6-[2-(2-methyl-5-phenyl-morpholin-4-yl)ethoxy]-3,4-dihydro-1H-quinolin-2-one], the IC50 on ALDH1A2 lay within 0.1 to 1 µM; at ALDH1A1, 10 to 100 µM.

On to `O=C1CCc2cc(NC(=O)c3sccc3-c3cccc(F)c3)ccc2N1` [ALDHI-1022, 3-(3-fluorophenyl)-N-(2-oxo-3,4-dihydro-1H-quinolin-6-yl)thiophene-2-carboxamide], for which the IC50 at ALDH1A2 lay in the range of 1 to 10 µM; on ALDH1A1 it was 10 to 100 µM.

Turning to `O=C1CCc2cc(NC(=O)c3sc(N4CC(O)C4)nc3-c3cccc(F)c3)ccc2N1` [ALDHI-1004, 4-(3-fluorophenyl)-2-(3-hydroxyazetidin-1-yl)-N-(2-oxo-3,4-dihydro-1H-quinolin-6-yl)thiazole-5-carboxamide], the IC50 against ALDH1A2 and at ALDH1A1 was not below 100 µM throughout.

Take `C[C@@H](c1ccccc1)N(CCO)CCOc1ccc2c(c1)CCC(=O)N2` [ALDHI-3007, 6-[2-[2-hydroxyethyl-[(1S)-1-phenylethyl]amino]ethoxy]-3,4-dihydro-1H-quinolin-2-one]: the IC50 on ALDH1A2 lay in the range of 1 to 10 µM; on ALDH1A1, 10 to 100 µM.

With `O=C1CSc2cc(OCCN3CCCC3c3ccncc3)ccc2N1` (stereo not shown) [ALDHI-2029, 7-[2-[2-(4-pyridyl)pyrrolidin-1-yl]ethoxy]-4H-1,4-benzothiazin-3-one], the IC50 against ALDH1A2 is 10 to 100 µM; at ALDH1A1, not below 100 µM.

`CC1Oc2cc(OCCN3CCCC3c3cccc(F)c3)ccc2NC1=O` (stereo not shown) [ALDHI-2044, 7-[2-[2-(3-fluorophenyl)pyrrolidin-1-yl]ethoxy]-2-methyl-4H-1,4-benzoxazin-3-one]: the values for the IC50 against ALDH1A2 and against ALDH1A1 were 10 to 100 µM and not below 100 µM, respectively.

In the case of `O=C1CSc2cc(OCCN3CCCC3c3ccccn3)ccc2N1` (stereo not shown) [ALDHI-2027, 7-[2-[2-(2-pyridyl)pyrrolidin-1-yl]ethoxy]-4H-1,4-benzothiazin-3-one], the IC50 is 10 to 100 µM against ALDH1A2 and not below 100 µM on ALDH1A1.

On to `Cc1noc(-c2ccccc2C(=O)Nc2ccc3c(c2)CCC(=O)N3)n1` [ALDHI-1008, 2-(3-methyl-1,2,4-oxadiazol-5-yl)-N-(2-oxo-1,2,3,4-tetrahydroquinolin-6-yl)benzamide], for which the IC50 is 1 to 10 µM against ALDH1A2 and not below 100 µM at ALDH1A1.

As to `O=C1CCc2cc(NC(=O)c3ncsc3-c3cccc(F)c3)ccc2N1` [ALDHI-1014, 5-(3-fluorophenyl)-N-(2-oxo-3,4-dihydro-1H-quinolin-6-yl)thiazole-4-carboxamide], the IC50 at ALDH1A2 was 10 to 100 µM; on ALDH1A1, not below 100 µM.

Turning to `CN(C)c1nc(-c2cccc(F)c2)c(C(=O)Nc2ccc3c(c2)CCC(=O)N3)s1` [ALDHI-1002, 2-(dimethylamino)-4-(3-fluorophenyl)-N-(2-oxo-3,4-dihydro-1H-quinolin-6-yl)thiazole-5-carboxamide], the IC50 was 1 to 10 µM on ALDH1A2 and not below 100 µM at ALDH1A1.

For the compound `O=C1CCCc2cc(OCCN3CCCC3c3cccc(F)c3)ccc2N1` (stereo not shown) [ALDHI-2020, 7-[2-[2-(3-fluorophenyl)pyrrolidin-1-yl]ethoxy]-1,3,4,5-tetrahydro-1-benzazepin-2-one], the values for the IC50 at ALDH1A2 and at ALDH1A1 were 1 to 10 µM and not below 100 µM, respectively.

As for `O=C1CCc2cc(OCCn3nccc3-c3cccc(F)c3)ccc2N1` [ALDHI-2023, 6-[2-[5-(3-fluorophenyl)pyrazol-1-yl]ethoxy]-3,4-dihydro-1H-quinolin-2-one], the IC50 against ALDH1A2 is less than 0.1 µM; against ALDH1A1, not below 100 µM.

`CN(CCOc1ccc2c(c1)CCC(=O)N2)C(=O)c1cccnc1` [ALDHI-3013, N-methyl-N-[2-[(2-oxo-3,4-dihydro-1H-quinolin-6-yl)oxy]ethyl]pyridine-3-carboxamide]: the IC50 on ALDH1A2 and against ALDH1A1 was not below 100 µM each time.
